In paper PMC11514837 (Toxicological Sciences, 2024):
Where two headings read alike, the source gives them in different places.

Key:
human AHR [1] = molecular target: T1, human AHR (Homo sapiens, UniProt P35869); details: exposures up to 30 μM
T1 sequence (P35869 11-848): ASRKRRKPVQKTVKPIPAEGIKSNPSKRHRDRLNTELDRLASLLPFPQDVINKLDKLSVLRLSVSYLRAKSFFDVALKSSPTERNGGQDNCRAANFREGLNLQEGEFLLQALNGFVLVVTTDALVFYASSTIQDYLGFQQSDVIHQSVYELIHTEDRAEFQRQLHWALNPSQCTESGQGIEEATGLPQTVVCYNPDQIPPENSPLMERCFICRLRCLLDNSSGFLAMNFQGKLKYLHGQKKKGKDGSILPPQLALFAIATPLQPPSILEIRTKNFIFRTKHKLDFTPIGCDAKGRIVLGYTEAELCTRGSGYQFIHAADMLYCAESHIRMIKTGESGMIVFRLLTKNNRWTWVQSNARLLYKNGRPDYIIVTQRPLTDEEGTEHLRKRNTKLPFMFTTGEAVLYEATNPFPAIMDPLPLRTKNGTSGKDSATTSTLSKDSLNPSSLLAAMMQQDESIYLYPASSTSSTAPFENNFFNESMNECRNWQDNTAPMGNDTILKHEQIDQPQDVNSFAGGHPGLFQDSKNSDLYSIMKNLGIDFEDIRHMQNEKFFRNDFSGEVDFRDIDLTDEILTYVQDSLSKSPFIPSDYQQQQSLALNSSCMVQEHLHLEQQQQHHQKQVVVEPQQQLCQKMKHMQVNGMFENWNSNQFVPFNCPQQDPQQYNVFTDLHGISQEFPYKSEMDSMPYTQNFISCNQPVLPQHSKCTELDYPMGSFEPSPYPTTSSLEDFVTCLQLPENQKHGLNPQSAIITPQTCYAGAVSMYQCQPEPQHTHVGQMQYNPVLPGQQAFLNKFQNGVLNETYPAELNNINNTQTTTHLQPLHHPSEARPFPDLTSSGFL

zebrafish embryos [2] = test: Zebrafish developmental toxicity screening, wild-type fish; type: in vivo, zebrafish (Danio rerio); details: for EC80: nominal concentration causing morphologic malformations in 80% of WT zebrafish; for concentration up to which not toxic in zebrafish: data not shown
zebrafish Ahr2 = molecular target: T2, zebrafish Ahr2 (Danio rerio, UniProt Q9YGV3); type: cell-based; details: exposures up to 30 μM
T2 sequence (Q9YGV3 1-1027): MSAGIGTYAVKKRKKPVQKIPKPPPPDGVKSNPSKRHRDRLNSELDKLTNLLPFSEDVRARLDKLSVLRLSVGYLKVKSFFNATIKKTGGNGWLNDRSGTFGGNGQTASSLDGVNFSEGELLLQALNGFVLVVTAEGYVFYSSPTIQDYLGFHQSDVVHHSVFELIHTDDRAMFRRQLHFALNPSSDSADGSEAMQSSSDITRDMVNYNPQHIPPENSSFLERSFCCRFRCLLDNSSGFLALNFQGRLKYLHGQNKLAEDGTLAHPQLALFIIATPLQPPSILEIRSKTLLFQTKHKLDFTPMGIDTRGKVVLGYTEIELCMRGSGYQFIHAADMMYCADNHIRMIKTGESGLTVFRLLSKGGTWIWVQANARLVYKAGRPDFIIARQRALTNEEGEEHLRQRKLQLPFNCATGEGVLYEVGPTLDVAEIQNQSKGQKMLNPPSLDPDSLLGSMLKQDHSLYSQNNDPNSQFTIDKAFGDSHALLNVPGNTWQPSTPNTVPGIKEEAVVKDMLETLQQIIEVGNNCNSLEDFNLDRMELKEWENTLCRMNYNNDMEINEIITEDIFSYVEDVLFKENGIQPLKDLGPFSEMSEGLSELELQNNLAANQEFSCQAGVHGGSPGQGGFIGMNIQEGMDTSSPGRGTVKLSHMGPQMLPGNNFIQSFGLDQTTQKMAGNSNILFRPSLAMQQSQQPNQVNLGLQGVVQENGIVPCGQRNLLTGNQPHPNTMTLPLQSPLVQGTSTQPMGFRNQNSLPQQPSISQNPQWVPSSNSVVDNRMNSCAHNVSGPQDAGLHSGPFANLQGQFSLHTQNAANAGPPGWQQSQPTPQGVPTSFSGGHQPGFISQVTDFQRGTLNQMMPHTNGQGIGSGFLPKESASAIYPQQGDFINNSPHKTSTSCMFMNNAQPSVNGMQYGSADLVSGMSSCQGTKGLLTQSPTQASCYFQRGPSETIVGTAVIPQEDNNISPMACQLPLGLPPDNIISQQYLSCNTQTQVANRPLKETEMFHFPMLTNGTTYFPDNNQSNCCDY

zebrafish embryos [3] = test: Window of susceptibility developmental toxicity exposures; type: in vivo
[4] = Larval metabolite analysis by LC-IM-MS; details: zebrafish exposed to 26 µM retene
[5] = system: cyp1a^cms-gfp zebrafish (EGFP under cyp1a promotor)
[6] = Retene body burden in zebrafish tissue; type: in vivo
human AHR [7] = molecular target: T1, human AHR
Ahr2 = details: ref Billiard et al. 2002; cited from earlier work
[8] = system: Ahr2 knockout (ahr2^hu3335) fish; details: ref Scott et al. 2011; Wilson et al. 2022; cited from earlier work
Cyp1b1^wh4 zebrafish = type: in vivo; details: TCDD
cyp1a^osu4 zebrafish = type: in vivo; details: TCDD, cyp1a^osu4 fish, 1 h exposure at 6 to 8 hpf
cyp1a^osu5 zebrafish = type: in vivo; details: TCDD, cyp1a^osu5 fish; unit not given

c1ccc2c3c(ccc2c1)-c1cccc2cccc-3c12 [Benzo[j]fluoranthene]
AHR activation in human HuH-7 luciferase reporter cells (human AHR [1]): direct AHR activators
EC80 (zebrafish embryos [2]): could not be determined
Ahr2 activation in zebrafish ZF-4 luciferase reporter cells (zebrafish Ahr2): direct AHR activators

Cc1cccc2c1ccc1cc(C(C)C)ccc12 [Retene, 1-methyl-7-isopropylphenanthrene]
BMC50 (zebrafish embryos [3]; exposure window 6 to 48 hpf, screened at 120 hpf): 52 ± 4 µM
developmental toxicity response (zebrafish embryos [3]; exposure window 48 to 120 hpf): little response
AHR activation in human HuH-7 luciferase reporter cells (human AHR [1]): minimal reporter activity
retene metabolites in tissue extracts at 12 and 24 hpf [4]: No retene metabolites were detected
EGFP expression at 23 hpf / early hours ([5]; zebrafish, in vivo): control-like EGFP expression
increase in body burden from 12 to 24 hpf ([6]; 30 μM retene from 6 hpf): greater than 3 fold
tissue burden at 48 hpf ([6]; 30 μM retene from 6 hpf): decreased to near-baseline
24 hpf body burden ([6]; static exposure to 30 μM retene from 6 hpf): 31 ng/fish
effect of supplementation with human liver s9 on reporter activity (human AHR [7]): did not lead to an increase in reporter activity
times less strong at binding Ahr2 than 1-methylphenanthrene (Ahr2): 3 ×
times less strong at binding Ahr2 than benzo[b]fluoranthene (Ahr2): 73 ×
Ahr2 activation in zebrafish ZF-4 luciferase reporter cells (zebrafish Ahr2): no significant activation
Ahr2 activation in zebrafish ZF-4 luciferase reporter cells (zebrafish Ahr2; listed as retene): do not respond
Ahr2 dependence of toxicity in developing zebrafish [8]: Ahr2 dependent toxicity

c1ccc2c(c1)-c1cccc3c1c-2cc1ccccc13 [Benzo[b]fluoranthene]
AHR activation in human HuH-7 luciferase reporter cells (human AHR [1]): direct AHR activators
concentration up to which not toxic in zebrafish (zebrafish embryos [2]): > 100 µM
Ahr2 activation in zebrafish ZF-4 luciferase reporter cells (zebrafish Ahr2): direct AHR activators

c1ccc2c(c1)cc1ccc3cccc4ccc2c1c34 [Benzo[a]pyrene]
AHR activation in human HuH-7 luciferase reporter cells (human AHR [1]): activator
Ahr2 activation in zebrafish ZF-4 luciferase reporter cells (zebrafish Ahr2): activator

Cc1cccc2c1ccc1ccccc12 [1-methylphenathrene, 1-methylphenanthrene]
concentration up to which not toxic in zebrafish (zebrafish embryos [2]): > 100 µM

O=c1c2ccccc2oc2ccccc12 [Xanthone]
EC80 (zebrafish embryos [2]): 52 µM

O=C1c2ccccc2C(=O)c2c1ccc1ccccc21 [Benzanthraquinone]
AHR activation in human HuH-7 luciferase reporter cells (human AHR [1]): direct AHR activators
Ahr2 activation in zebrafish ZF-4 luciferase reporter cells (zebrafish Ahr2): direct AHR activators

Clc1cc2c(cc1Cl)Oc1cc(Cl)c(Cl)cc1O2 [TCDD, 2,3,7,8-Tetrachlorodibenzo-p-dioxin]
change in toxicity versus 5D fish (Cyp1b1^wh4 zebrafish): no change in toxicity
BMC50 (cyp1a^osu4 zebrafish): 0.41 ± 0.07 nM
BMC (cyp1a^osu5 zebrafish): 0.56 ± 0.13

c1ccc2cc3c(cc2c1)-c1cccc2cccc-3c12 [Benzo[k]fluoranthene, Benzo(k)fluoranthene]
AHR activation in human HuH-7 luciferase reporter cells (human AHR [1]): direct AHR activators
EGFP expression at 23 hpf / early hours ([5]; cyp1a^cms-gfp fish, retene 26 μM, benzo[k]fluoranthene 8.9 μM): strong widespread EGFP expression
Ahr2 activation in zebrafish ZF-4 luciferase reporter cells (zebrafish Ahr2): direct AHR activators
